Measured values taken from PubChem BioAssay (NCI).
Several values for one entry are separate records, joined by “and”; a condition that tells them apart may be missing. Equal entries are not always repeated.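 Assay format: 96-well plates, 48-hour exposure. At the GI50, growth is halved. TGI: total growth inhibition.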

Legend:
Assay in all cases: NCI tumour cell line growth inhibition, 48 h
[1] = tested on: CAKI-1 renal
[2] = tested on: 786-0 renal
[3] = tested on: SK-MEL-2 melanoma
[4] = tested on: ACHN renal
[5] = tested on: NCI/ADR-RES ovarian
[6] = tested on: HOP-62 NSCLC
[7] = tested on: HS 578T breast
[8] = tested on: HOP-92 NSCLC
[9] = tested on: CCRF-CEM leukemia
[10] = tested on: U251 CNS

SMILES	GI50 [1]	TGI [1]	GI50 [2]	TGI [2]	GI50 [3]	TGI [3]	GI50 [4]	TGI [4]	GI50 [5]	TGI [5]	GI50 [6]	TGI [6]	GI50 [7]	TGI [7]	GI50 [8]	TGI [8]	GI50 [9]	TGI [9]	GI50 [10]	TGI [10]
C=C(C)[C@@H]1CC[C@]2(C(N)=O)CC[C@]3(C)[C@H](CC[C@@H]4[C@@]5(C)CC[C@H](O)C(C)(C)[C@@H]5CC[C@]43C)[C@@H]12	1.98 µM	4.98 µM	2.03 µM	4.61 µM	7.63 µM	36.8 µM	2.44 µM	6.82 µM	3.17 µM	12.5 µM	3.21 µM	12.8 µM	5.74 µM	> 100 µM	2.69 µM	8.86 µM	4.49 µM	> 100 µM	2.54 µM	7.16 µM
C[C@@H](N)C1CCC(C(=O)Nc2ccncc2)CC1 (stereo not given in full)	> 40.4 µM	> 100 µM	> 100 µM	> 100 µM	> 100 µM	> 100 µM	> 100 µM	> 100 µM	> 100 µM	> 100 µM	> 100 µM	> 100 µM	26.4 µM	> 100 µM	0.855 µM	> 100 µM	51.2 µM	> 100 µM	> 100 µM	> 100 µM
Cc1ncc(C(=O)Nc2ccc(CN3CCN(C)CC3)c(C(F)(F)F)c2)cc1C#Cc1cnc(N)c2cnccc12	0.167 µM	1.64 µM	0.225 µM	11 µM	0.0243 µM	0.0941 µM	0.133 µM	1.03 µM	6.68 µM	23.9 µM	0.0854 µM	1.34 µM	0.058 µM	0.696 µM	0.0299 µM	0.258 µM	0.0906 µM	3.46 µM	0.0864 µM	2.35 µM
C[C@H]1CC[C@H]([C@@H](C)[C@H]2[C@@H](O)C[C@H]3[C@@H]4CC[C@H]5C[C@@H](O)CC[C@]5(C)[C@H]4CC[C@]23C)NC1		34.3 µM		37.1 µM		46 µM		53.7 µM		32.6 µM		58.1 µM		57.7 µM		33.7 µM		29 µM		31.9 µM
CCNCCC1(CC)C(=O)NC(=O)NC1=O		> 100 µM		> 100 µM		> 100 µM		> 100 µM		> 100 µM		> 100 µM		> 100 µM		> 100 µM	> 100 µM	> 100 µM		> 100 µM
COc1cc2c3c(c4ccc(OC)c(OC)c4c2cc1OC)CN1CCC[C@@H]1C3		1.1 µM		1.78 µM		0.237 µM		3.55 µM		0.4 µM		39.8 µM		0.593 µM		0.616 µM		0.651 µM		> 23.3 µM
CCN(CC)CC.CCOc1ccc(NC(=O)N=C=[N-])cc1.[CH-]1CCCCC1.[CH-]1CCCCC1.[CH-]1CCCCC1.[Cl-].[Sn+4]	0.0282 µM	0.0969 µM	0.0157 µM	0.0372 µM	0.0376 µM	0.0964 µM	0.0493 µM	0.116 µM	0.0221 µM	0.0559 µM	0.122 µM	0.234 µM	0.0565 µM	0.47 µM	0.0264 µM	0.111 µM	< 0.0162 µM	0.515 µM	0.0261 µM	0.0718 µM
Cc1cccc(-c2nn3c(c2-c2ccnc4ccc(C(N)=O)cc24)CCC3)n1	> 100 µM	> 100 µM	> 100 µM	> 100 µM	> 100 µM	> 100 µM	> 100 µM	> 100 µM	> 100 µM	> 100 µM	> 100 µM	> 100 µM	> 100 µM	> 100 µM	> 100 µM	> 100 µM	> 100 µM	> 100 µM	> 100 µM	> 100 µM
CC1=CC(=O)CC(C)(C)C1(O)/C=C/C(C)=C/C(=O)O (stereo not given)		> 100 µM		> 100 µM		> 100 µM		> 100 µM		> 100 µM		> 100 µM		> 100 µM		> 100 µM		> 100 µM		> 100 µM
CCCOc1ccc(-c2nc(-c3ccc(N=Cc4ccc(N(CCOS(C)(=O)=O)CCOS(C)(=O)=O)cc4C)cc3)cs2)cc1		12.8 µM		26.5 µM		50.9 µM		18.7 µM		> 84.6 µM		43.7 µM		> 90.9 µM		52.7 µM		> 100 µM		52.4 µM
COc1c2ccoc2cc2oc(=O)ccc12		> 100 µM		> 100 µM		> 100 µM		> 100 µM		> 100 µM		> 100 µM		> 100 µM		> 100 µM		> 100 µM		> 100 µM
COC(=O)[C@H]1[C@@H](O)[C@@]2(O)c3c(OC)cc(O[C@@H]4O[C@@H]([C@H](O)CO)CO[C@H]4OC)cc3O[C@@]2(c2ccc(OC)cc2)[C@@H]1c1ccccc1	0.997 µM	> 1 µM	0.0282 µM	0.127 µM	0.00354 µM	0.0158 µM	0.0597 µM	0.783 µM		> 1 µM	0.00319 µM	0.0181 µM	0.00596 µM	0.0806 µM	0.00325 µM	0.0151 µM	0.00545 µM	0.125 µM	0.00352 µM	0.0202 µM
O=C(c1ccc(OCCN2CCCCC2)cc1)c1c(-c2ccc(O)cc2)sc2cc(O)ccc12	4.65 µM and 14.4 µM	20.6 µM and 34.1 µM	4.5 µM and 7.58 µM	18.2 µM and 27.6 µM	15.8 µM and 14.9 µM	35.2 µM and 33.8 µM	13.5 µM and 14.7 µM	27.2 µM and 28.2 µM	7.72 µM and 17.7 µM	23.1 µM and 42.6 µM	10.4 µM and 15.4 µM	22.2 µM and 43.8 µM	2.99 µM and 9.71 µM	22.8 µM and 47.8 µM	1.43 µM and 5.51 µM	6.72 µM and 29 µM	5.55 µM and 1.85 µM	43.9 µM and > 29.8 µM	5.53 µM and 7.84 µM	19.6 µM and 21.1 µM
O=C1/C=C/[C@@H](O)[C@@H]2C[C@@H](O)C[C@H]2/C=C/CCC[C@H](CCc2ccc(C(F)(F)F)cc2)O1	0.312 µM	> 100 µM	0.0826 µM	0.378 µM	0.349 µM	1.41 µM	0.41 µM	> 100 µM	0.191 µM	9.58 µM	0.328 µM	11 µM	0.0602 µM	> 27.2 µM	0.227 µM	0.89 µM	0.314 µM	49 µM	0.272 µM	21.3 µM
